# According to US12577235B2, “Crystalline form of CXCR2 antagonist and application thereof” (Shenzhen Optimum Biological Technology Co., Ltd, priority 2019, dated 2026):
# Experiments:
# CXCR2 = target: T1, CXCR2 (Homo sapiens, UniProt P25025); assay: PathHunter CXCR2 β-arrestin cell assay (CXCL8 agonist, chemiluminescence); assay type: cell-based; conditions: CXCR2 β-arrestin cells, CXCL8 at EC80
# T1 sequence (P25025 1-360): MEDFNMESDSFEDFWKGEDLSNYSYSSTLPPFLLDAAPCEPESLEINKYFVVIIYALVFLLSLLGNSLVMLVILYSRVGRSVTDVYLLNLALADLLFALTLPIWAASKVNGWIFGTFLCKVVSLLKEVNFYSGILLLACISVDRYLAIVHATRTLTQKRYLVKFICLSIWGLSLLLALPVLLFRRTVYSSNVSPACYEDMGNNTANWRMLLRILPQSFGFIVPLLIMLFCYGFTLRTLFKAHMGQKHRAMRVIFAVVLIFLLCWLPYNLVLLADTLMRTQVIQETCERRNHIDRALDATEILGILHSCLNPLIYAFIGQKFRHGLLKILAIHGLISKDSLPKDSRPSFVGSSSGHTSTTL
# Procedure: CXCR2 β-arrestin cells (DiscoverX) of PathHunter® were cultured in standard conditions and inoculated at 20 μL/well to a 384-well white microplate. Before testing, the cells were incubated at 37° C. for an appropriate period of time. The test compound was serially 3-fold diluted in DMSO to give 8 concentrations. Shortly before testing, the serially diluted test samples were further diluted with test buffer to 5 folds of the test concentration. 5 μL of further diluted test samples were added to the cells and the cells were incubated at 37° C. for 30 min. The concentration of vehicle was 1%. 5 μL of 6×EC80 agonist (CXCL8) buffer was then added to the cells, and the cells were incubated at 37° C. for 90 min. The test signal was generated by adding 15 μL (50% v/v) of PathHunter detection mixture reagent in one portion and subsequently incubating the cells for 1 h. The chemiluminescence signal of the microplate was read by a PerkinElmer Envision™ instrument. The biological activities of the test compounds were analyzed by CBIS data analysis kit (ChemInnovation, CA), shown as IC50 values.
# [1] = Plasma pharmacokinetic assay in rats; assay type: in vivo, Lewis rats
# Procedure: In this plasma pharmacokinetic assay, 4 male Lewis rats were used and randomized into two groups, with 2 animals in each group. The animals in the first group were given 2 mg/kg of the test compound by intravenous injection and the animals in the second group were given 10 mg/kg of the test compound by intragastric administration. An aqueous solution of 1% DMSO/20% PEG400/79% (HP-b-CD) was used as the vehicle, and the resulting intravenous and intragastric formulations (adjusted to pH=2.78) were clear solutions. Blood samples were collected from saphenous veins of animals at 0.0830, 0.25, 0.5, 1, 2, 4, 6, 8 and 24 hours post-dose for the intravenous injection group, and at 0.25, 0.5, 1, 2, 4, 6, 8 and 24 hours post-dose for the intragastric administration group, with 3 samples at each time point. Plasma samples of the intragastric administration group were cryopreserved at −80° C. and thawed before LC-MS/MS sample analysis. Acetonitrile containing internal standard was added to the thawed plasma samples at a certain ratio to precipitate proteins.
# The mixture was centrifuged, and the supernatant was subjected to analysis by LC-MS/MS. An API4000 or 5500 system equipped with ACQUITY UPLC BEH C18 (2.1×50 mm, 1.7 μm) column and ESI positive or negative ion source was used. Each analysis batch included standard samples with 8 concentrations. A curve of the ratio of the peak areas of the test compound to the internal standard (IS) vs. the concentration of the test compound in the plasma sample was plotted, and linear regression was performed using 1/X^2 as weighting coefficient to give a regression equation between the measured response and the concentration. Each analysis batch also included corresponding quality control samples. Data processing was performed using Phoenix 6.3 WinNonlin® to give corresponding PK parameters.
# [2] = tested on: rat COPD model induced by smoking combined with lipopolysaccharide; assay: Anti-inflammation effect in rat COPD model induced by smoking combined with lipopolysaccharide; assay type: in vivo, SD rats; conditions: Danirixin 30 mpk; crystalline form A 3-30 mpk
# Procedure: Modeling: the animal model was prepared by exposing the rats to cigarette smoke once daily for 14 days. The rats were smoked for 90 min per day in 2 portions with a break of 10 min. 18 Marlboro cigarettes (with a tar content of 11 mg) were given each time. LPS was administered dropwise via airway at 200 μg/rat once weekly. The administration dropwise was performed on days 6 and 13 of smoke exposure (on the day of LPS administration dropwise, only LPS was administered dropwise for modeling without smoke exposure). • 2. Administration: an aqueous solution of 1% DMSO/20% PEG400/79% (HP-b-CD) was used as the vehicle, and the drugs were administrated intragastrically everyday at a volume of 5 mL/kg for 2 weeks. • 3. Endpoint: On day 15, pulmonary function test, sample collection, inflammatory cell count in bronchoalveolar lavage fluid, pathological analysis, and lung tissue MPO and MMP9 assay were carried out. Procedures of Pulmonary Function Test:
# After the last smoking and modeling were finished, pulmonary function was tested for each group of animals on the second day, and pulmonary resistance and compliance were detected under stimulation of methacholine chloride at different doses. The animals were anesthetized by intraperitoneal injection with […] of 25% urethane. After the animals were deeply anesthetized, airway intubation was performed by separating airways, and meanwhile, jugular veins were separated. After breathing stably, the animals were put into a plethysmograph. Drug administration pipelines were inserted into the separated jugular veins. After the animals were in rest state for 1-2 min and the breathing curves were stable, then detection was started. Rats were administered with methacholine chloride at doses of 0, 0.0083, 0.025, 0.075, 0.225, 0.675 mg/kg by jugular vein intubation. The increase in airway resistance and decrease in pulmonary compliance were observed after each administration. After 1-2 min, the parameters returned to near the baseline of the previous concentration of methacholine chloride, and methacholine chloride of the next concentration was injected. After the detection was finished, subsequent alveolar lavage and sample collection were performed.
# After the pulmonary function test was finished, the rats were sacrificed by cervical dislocation. After the animals were confirmed dead, the lungs were carefully separated, a lavage syringe was inserted into the main trachea and fixed with 2-0 silk thread. The right lung was ligated. 5 mL of low-temperature normal saline was slowly injected through the lavage syringe. The normal saline was slowly extracted after confirming that the normal saline was injected into the left lung. The operation was repeated twice. By the three lavages, a total of 15 mL of normal saline was injected for lavage. The obtained BALF was injected into a 15 mL centrifuge tube and preserved in a storage box at 4° C. for subsequent BALF cells counting.
# After BALF was collected, the right lung which was not infused was taken off and weighted. The two upper lobes of the right lung were put into a cryopreservation tube, frozen in a freezer at −80° C. for later use. Lower lobe tissues were fixed in formalin.
# 1 mL of homogenously mixed BALF was added into 1 mL of a solution of 1% glacial acetic acid in normal saline. Cells were counted using a hemocytometer. The remaining lavage fluid was centrifuged at 1500 r/min for 10 min at 4° C. to give a cell mass. The cells were resuspended in 200 μL of normal saline, uniformly coated on a glass slide and stained by Wright-Giemsa stain. Macrophages, neutrophils and lymphocytes in a total of 200 cells were counted under a microscope, and the proportions of the cells was calculated. For lavage fluid collection, animals failing the lavage fluid collection were not summarized. […]
# [3] = tested on: PPE-induced SD rat COPD model; assay: Therapeutic effect on PPE-induced COPD model; assay type: in vivo, SD rats; conditions: 30 mpk intragastric daily, 4 weeks
# Text: • To test the therapeutic effect of the compound on PPE-induced SD rat COPD model. Materials: • Animals: SD rats (male, 160-180 g, 6 weeks age) • Test compounds: porcine pancreatic elastase (Sigma, 0.068 U/μL); Danirixin, compound 1. • Grouping: 1) vehicle group • 2) COPD model group (porcine pancreatic elastase modeling group/solvent group) • 3) PPE+Danirixin (30 mpk) • 4) PPE+compound 1 (10 mpk) • 5) PPE+compound 1 (30 mpk) Procedures: • 1. Modeling: PPE was given retrolingually. • 2. Administration: an aqueous solution of 1% DMSO/20% PEG400/79% (HP-b-CD) was used as the vehicle, and the drugs were administrated intragastrically everyday at a volume of 2 mL/rat for 4 weeks. • 3. Endpoint: On day 29, pulmonary function test, sample collection, and inflammatory cell count in bronchoalveolar lavage fluid.
# Bronchoalveolar lavage: The rats were sacrificed, and dissected at the neck. Trachea intubation was performed. 1 mL of cold […] at 4° C. was infused for 3 lavages, and the lavage fluids were combined. The combined lavage fluids were centrifuged at 1200 rpm/min for 5 min, and the supernatant was discarded. The cell suspension was collected;
SMILES,IC50 (CXCR2) [nM],"half-life ([1]; rat, plasma, po, male Lewis rats, 10 mg/kg intragastric, read-out: Intragastric administration Half life (T1/2) (converted)) [h]","Cmax ([1]; rat, plasma, po, male Lewis rats, 10 mg/kg intragastric, read-out: Intragastric administration Maximum plasma concentration (Cmax)) [µM]","AUC ([1]; rat, plasma, po, male Lewis rats, 10 mg/kg intragastric, read-out: Intragastric administration Plasma exposure (AUC)) [µM·h]","clearance ([1]; rat, plasma, male Lewis rats, 2 mg/kg intravenous, read-out: Intravenous injection Clearance (CL)) [mL/min/kg]",Pharmacokinetic properties (in words) ([1]; rats),Anti-inflammatory effect (summary) [2],"Count of immune inflammatory cells (neutrophils, macrophages, lymphocytes) in bronchoalveolar lavage fluid [3]"
O=C(Nc1ccc(Cl)c(S(=O)(=O)[C@H]2CCCNC2)c1O)N[C@@H]1CCCc2cc(C(F)(F)F)oc21 [Compound 1],22,4.22,3,31.3,5.07,good pharmacokinetic properties,–,–
"Cc1c(F)cccc1NC(=O)Nc1ccc(Cl)c(S(=O)(=O)[C@H]2CCCNC2)c1O [Danirixin, reference compound]",–,–,–,–,–,–,significant anti-inflammatory effect,significantly reduced
